Measured values taken from patent US5578622A, “Isothiazole derivatives and their uses” (Asamura Patent Office, priority 1994, dated 1996).

Key:
[1] = system: Gibberella fujikuroi ("Bakanae" disease of rice); experiment: Test for rice seed-disinfecting effect; format: in vivo; conditions: Fusarium fujikuroi, 504 h, seed immersion 25° C. 24 hours, three weeks after treatment, read-out: Controlling effect (control of disease), "Bakanae" disease of rice
Method in brief: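 Bakanae-infected unhulled rice seed soaked 24 hours at 25° C in 1000 ppm compound, then sown and germinated two days. Infected-seedling rate scored three weeks after treatment; control calculated against untreated plot and graded on a standard scale.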

[2] = system: Rhizoctonia solani; experiment: Test for controlling effect on sheath blight of rice; format: in vivo; conditions: 120 h, 200 ppm spray, 24 hours after inoculation, rice 4-leaf stage, five days after inoculation, read-out: Controlling effect (control of disease), Sheath blight of rice
Method in brief: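 Rice seedlings at the 4-leaf stage were inoculated with mycelium, then sprayed 24 h later with compound at 200 ppm. After air-drying, plants were held 24 h at 28 °C and 98% humidity, then moved to a greenhouse. Infected area was scored 5 days post-inoculation; control was calculated relative to untreated plants.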

[3] = system: Candida albicans IFO 1270; experiment: In vitro antimycotic activity on Candida albicans; format: cell-based; conditions: IFO1270, 10 (ppm), SGB, 37° C., 48 hours, turbidity at 650 nm, read-out: Antimycotic activity (growth inhibitory rate), C.albicans
Description: 3-1 In vitro antimycotic activity on Candida albicans
Candida albicans IFO 1270 pre-cultured on a Sabouraud's glucose agar (SGA) plate medium at 37° C. […] was suspended in a sterilized physiological salt solution. The number of fungi in the resulting suspension was counted with a globulimeter, and adjusted so as to be 1×10^7 cell/ml with a sterilized physiological salt solution. This solution was used as an inoculum solution. Thereafter, 0.1 ml of this solution and 0.1 ml of a dimethyl sulfoxide (DMSO) solution of the test compound were added to 9.8 ml of Sabouraud's glucose broth (SGB), and shake-cultured at 37° C. for 48 hours. After culture, the medium turbidity was measured at 650 nm, and the growth-inhibitory rate of the fungus was calculated according to the following equation.
Growth inhibitory rate (%)=(1-W/Y)×100
Y: Medium turbidity of DMSO control group
W: Medium turbidity of test compound group
From this inhibitory rate, the antimycotic activity was shown by the symbols A to D. The test results of the test compounds are shown in Table 4.

Compound	pest or weed control at 1000 ppm [1]	pest or weed control at 200 ppm [2]	inhibition of growth at 10 µg/mL [3]
CSc1nsc(SCOCC#CI)c1C#N [Compound 136]	80 to 94%	80 to 94%	100%
N#Cc1c(OCOCC#CI)nsc1SC(F)F [Compound 90]	95 to 100%	95 to 100%	100%
CSc1snc(OC(C)OCC#CI)c1C#N (stereo not drawn) [Compound 119]	95 to 100%	80 to 94%	100%
CC(C)Oc1snc(OCC#CI)c1C#N [Compound 23]	95 to 100%	80 to 94%	100%
COc1snc(OCC#CI)c1C#N [Compound 21, 3-(3-iodo-2-propynyloxy)-4-cyano-5-methoxyisothiazole]	95 to 100%	95 to 100%	100%
CN(C)c1snc(OCC#CI)c1C#N [Compound 30, 3-(3-iodo-2-propynyloxy)-4-cyano-5-dimethylaminoisothiazole]	95 to 100%	95 to 100%	100%
COc1nsc(OCC#CI)c1C#N [Compound 48]	95 to 100%	95 to 100%	100%
CS(=O)(=O)c1snc(OCC#CI)c1C#N [Compound 41, 3-(3-iodo-2-propynyloxy)-4-cyano-5-methylsulfonylisothiazole]	95 to 100%	80 to 94%	100%
N#Cc1c(OC(F)F)nsc1OCCC#CI [Compound 82]	95 to 100%	95 to 100%	100%
CSc1snc(OCCC#CI)c1C#N [Compound 70]	80 to 94%	95 to 100%	100%
CCOc1nsc(SCOCC#CI)c1C#N [Compound 54]	95 to 100%	95 to 100%	100%
N#Cc1c(OC(F)F)nsc1SCOCC#CI [Compound 60]	95 to 100%	95 to 100%	100%
CCOc1snc(OCOCC#CI)c1C#N [Compound 96]	95 to 100%	95 to 100%	100%
N#Cc1c(OCC#CI)nsc1SC(F)F [Compound 12, 3-(3-iodo-2-propynyloxy)-4-cyano-5-difluoromethylthioisothiazole]	95 to 100%	80 to 94%	100%
N#Cc1c(OCC#CI)nsc1S(=O)(=O)C(F)F [Compound 43]	95 to 100%	95 to 100%	100%
CSc1snc(OCC#CI)c1C#N [Compound 1, 3-(3-iodo-2-propynyloxy)-4-cyano-5-methylthioisothiazole]	95 to 100%	60 to 79%	100%
